In US5430062A, “Stilbene derivatives as anticancer agents” (priority 1993, dated 1995):
Structures can show the parent of a compound that is named as a salt. Where two headings read alike, the source gives them in different places.

Columns and labels:
tubulin = test: Inhibition of tubulin polymerization (turbidimetry); assay type: biochemical, bovine
MLM melanoma = test: MTT cytotoxicity assay, MLM; details: […]
A-549 lung carcinoma = test: MTT cytotoxicity assay, A-549; details: Homo sapiens, A549, […]
MCF-7 breast carcinoma = test: MTT cytotoxicity assay, MCF-7; details: Homo sapiens, MCF7, […]
[1] = test system: HT-29 colon adenocarcinoma; test: MTT cytotoxicity assay, HT-29; details: Homo sapiens, HT-29, […]
SKMEL-5 melanoma = test: MTT cytotoxicity assay, SKMEL-5; details: Homo sapiens, SK-MEL-5, […], read-out: Cytotoxicity ED50, SKMEL-5
[2] = read-out: Cytotoxicity ED50, MLM
[3] = read-out: Cytotoxicity ED50, A-549
[4] = read-out: Cytotoxicity ED50, MCF-7
[5] = read-out: Cytotoxicity ED50, HT-29
[6] = first series (Table VIII and text), 37° C., 20 min, read-out: Tubulin polymerization IC50 (±S.D.)
[7] = second series (Tables V-VII, IX), read-out: Inhibition of Tubulin Polymerization IC50 (±S.D.)

Compound	IC50 (MLM melanoma; [2])	IC50 (A-549 lung carcinoma; [3])	IC50 (MCF-7 breast carcinoma; [4])	IC50 [1, 5]	IC50 (SKMEL-5 melanoma)	IC50 (tubulin; [7])	other results
COc1ccc(/C=C\c2ccc(OC)c(OC)c2OC)cc1 [5d, (Z)-1-(4-Methoxyphenyl)-2-(2,3,4-trimethoxy-phenyl)ethene]	10.9 µM	0.97 µM	0.23 µM	1 µM	1.1 µM		inhibition of tubulin polymerization (class) (tubulin): inactive
COc1ccc(NC(=O)c2cc(OC)c(OC)c(OC)c2)cc1 [11a, 3,4,5-Trimethoxy-N-(4-methoxyphenyl)benzamide]	> 25 µM	14.1 µM	12.2 µM	22.7 µM	> 25 µM		inhibition of tubulin polymerization (in words) (tubulin): lower inhibitory activity
COc1ccc(NC(=O)c2cc(OC)cc(OC)c2)cc1 [11d]	> 25 µM	9.02 µM	5.47 µM	14.5 µM	11.9 µM		inhibition of tubulin polymerization (in words) (tubulin): lower inhibitory activity
COc1ccc(CNc2cc(OC)c(OC)c(OC)c2)cc1 [12c, 4-Methoxy-N-(3,4,5-trimethoxyphenyl)benzylamine]	> 25 µM	0.83 µM	0.86 µM	2.24 µM	1.13 µM		inhibition of tubulin polymerization (in words) (tubulin): lower inhibitory activity; IC50 (tubulin; [6]): > 50 µM
COc1ccc(/C=C\c2cc(OC)c(OCc3ccccc3)c(OC)c2)cc1 [15j, (Z)-1-[4-(Benzyloxy)-3,5-(dimethoxy)phenyl]-2-(4-methoxyphenyl)ethene]						> 40 µM	
COc1ccc(/C=C\c2cc(OC)c(O[Si](C)(C)C(C)(C)C)c(OC)c2)cc1 [15k, (Z)-1-[4-{(t-Butyldimethylsilyl)-oxy}-3,5-(dimethoxy)-phenyl]-2-(4-methoxyphenyl)ethene]	> 25 µM	> 25 µM	> 25 µM	9 µM	> 25 µM	> 40 µM	
COc1ccc(/C=C\c2cc(OC)c(OC(C)=O)c(OC)c2)cc1 [15l, (Z)-1-(4-Acetoxy-3,5-dimethoxyphenyl)-2-(4-methoxyphenyl)ethene]	> 25 µM	21.5 µM	> 25 µM	8.7 µM	0.6 µM	24 µM	
CCc1ccc(/C=C/c2cc(OC)c(OC)c(OC)c2)cc1 [16e, (E)-(4-Ethylphenyl)-2-(3,4,5-trimethoxyphenyl)ethene]	0.22 µM	0.13 µM	1.2 µM	0.11 µM	0.17 µM		
COc1cc(/C=C/c2ccc(C(C)(C)C)cc2)cc(OC)c1OC [16g, (E)-1-(4-t-Butylphenyl)-2-(3,4,5-trimethoxyphenyl)ethene]	> 25 µM	> 25 µM	> 25 µM	> 25 µM	> 25 µM		
COc1ccc(/C=C/c2ccc(OC)c(OC)c2)cc1 [16h, (E)-(4-Methoxyphenyl)-2-(3,4-dimethoxyphenyl)ethene]	> 25 µM	11.7 µM	> 25 µM	> 25 µM	> 25 µM		
COc1ccc(/C=C/c2cc(OC)cc(OC)c2)cc1 [16i, (E)-1-(3,5-Dimethoxyphenyl)-2-(4-methoxyphenyl)ethene]	> 25 µM	7.5 µM	9.7 µM	6.9 µM	0.88 µM		
COc1ccc(/C=C/c2cc(OC)c(O[Si](C)(C)C(C)(C)C)c(OC)c2)cc1 [16k, (E)-1-[4-{(t-Butyldimethylsilyl)-oxy}-3,5-(dimethoxy)-phenyl]-2-(4-methoxyphenyl)ethene]	> 25 µM	> 25 µM	> 25 µM	> 25 µM	> 25 µM		
COc1ccc(/C=C/c2cc(OC)c(OC(C)=O)c(OC)c2)cc1 [16l, (E)-1-(4-Acetoxy-3,5-dimethoxyphenyl)-2-(4-methoxy-phenyl)ethene]	21 µM	16.4 µM	19.4 µM	11.7 µM	10.2 µM		
COc1cc(CCc2ccc(C)cc2)cc(OC)c1OC [17d, 1-(4-Methylphenyl)-2-(3,4,5-trimethoxyphenyl)ethane]	1.4 µM	0.18 µM	0.22 µM	0.1 µM	0.27 µM	21 µM	
CCc1ccc(CCc2cc(OC)c(OC)c(OC)c2)cc1 [17e, 1-(4-Ethylphenyl)-2-(3,4,5-trimethoxyphenyl)ethane]	2.7 µM	0.088 µM	0.16 µM	0.016 µM	0.047 µM	18 µM	
COc1ccc(/C(=C\c2cc(OC)c(OC)c(OC)c2)C(=O)O)cc1 [23c, (E)-2-(4-Methoxyphenyl)-3-(3,4,5-trimethoxyphenyl)-prop-2-enoic acid]	> 25 µM	5.2 µM	1.9 µM	5.9 µM	2.3 µM	> 40 µM	
COc1ccc2ccc3cc(OC)c(OC)c(OC)c3c2c1 [32b, 2,3,4,6-Tetramethoxyphenanthrene]	> 25 µM	> 25 µM	> 25 µM	1.1 µM	12.5 µM	> 40 µM	
COc1ccc2c(ccc3cc(OC)c(OC)c(OC)c32)c1 [32c, 2,3,4,7-Tetramethoxyphenanthrene]	> 25 µM	> 25 µM	> 25 µM	> 25 µM	> 25 µM	> 40 µM	
COc1cc2ccc3c(OC)cccc3c2c(OC)c1OC [32d, 2,3,4,8-Tetramethoxyphenanthrene]	> 25 µM	> 25 µM	14.6 µM	9.3 µM	12 µM	> 40 µM	
CCCc1ccc(NCc2cc(OC)c(OC)c(OC)c2)cc1 [110g, 4-n-Propyl-N-(3,4,5-trimethoxybenzyl)aniline Hydrochloride]							IC50 (tubulin; Table X, different glutamate preparation (1M monosodium glutamate and GTP), read-out: inhibn of tubulin polymn IC50 (±SD)): > 40 µM
COc1cccc2c1C(=O)c1c(O)c3c(c(O)c1C2=O)C[C@@](O)(C(=O)CO)C[C@@H]3O[C@H]1C[C@H](N)[C@H](O)[C@H](C)O1 [Adriamycin, reference compound]	0.13 µM	0.029 µM	0.031 µM	0.055 µM	0.032 µM		
COc1ccc(/C=C/c2cc(OC)c(OC)c(OC)c2)cc1 [compound 6a, (E)-1-(4-Methoxyphenyl)-2-(3,4,5-trimethoxyphenyl)ethene]					0.81 µM		IC50 (tubulin; [6]): > 50 µM; IC50 (MLM melanoma; read-out: Cytotoxicity ED50, MLM, MLM, MTT, six days): 2.07 µM; IC50 (A-549 lung carcinoma; read-out: Cytotoxicity ED50, A-549, A-549, MTT, six days): 1.18 µM; IC50 (MCF-7 breast carcinoma; read-out: Cytotoxicity ED50, MCF-7, MCF-7, MTT, six days): 1.05 µM; IC50 ([1]; read-out: Cytotoxicity ED50, HT-29, HT-29, MTT, six days): 1.82 µM
COc1cc(/C=C/c2ccc([N+](=O)[O-])cc2)cc(OC)c1OC [compound 6l, (E)-1-(4-Nitrophenyl)-2-(3,4,5-trimethoxyphenyl)ethene]	> 25 µM	> 25 µM	> 25 µM	> 25 µM	> 25 µM		
COc1cc(/C=C/c2ccc(O)cc2)cc(OC)c1OC [compound 6o, (E)-1-(4-Hydroxyphenyl)-2-(3,4,5-trimethoxyphenyl)ethene]	24.2 µM	> 25 µM	18.6 µM	> 25 µM	11.6 µM		
COc1cc(CCc2ccc(NC(C)=O)cc2)cc(OC)c1OC [compound 8m, 1-(4-Acetamidophenyl)-2-(3,4,5-trimethoxyphenyl)ethane]	> 25 µM	> 25 µM	> 25 µM	> 25 µM	> 25 µM		
COc1cc(CCc2cc(OC)c(OC)c(OC)c2)cc(OC)c1 [compound 8s]	> 25 µM	> 25 µM	> 25 µM	> 25 µM	> 25 µM		inhibition of tubulin polymerization (in words) (tubulin): lower activity
COc1cc(CCc2ccc(N)cc2)cc(OC)c1OC [compound 8z, 1-(4-Aminophenyl)-2-(3,4,5-trimethoxyphenyl)ethane]	> 25 µM	12.2 µM	11.9 µM	24.6 µM	12.7 µM		inhibition of tubulin polymerization (in words) (tubulin): lower activity
CCOc1ccc(/C=C\c2cc(OC)c(OC)c(OC)c2)cc1 [compound 15a, (Z)-1-(4-Ethoxyphenyl)-2-(3,4,5-trimethoxyphenyl)ethene]	0.029 µM	0.0016 µM	0.096 µM	0.0018 µM	0.0025 µM	2.7 µM	
CCCOc1ccc(/C=C\c2cc(OC)c(OC)c(OC)c2)cc1 [compound 15b, (Z)-1-(4-n-Propoxyphenyl)-2-(3,4,5-trimethoxyphenyl)-thene]	0.065 µM	0.039 µM	0.66 µM	0.028 µM	0.014 µM	6 µM	
COc1ccc(/C=C\c2cc(OC)c(OC)c(OC)c2)cc1 [compound E, reference compound]							IC50 (tubulin; Table X footnote b, different glutamate preparation, read-out: tubulin polymerization IC50, standard agents): 1.2 ± 0.05 µM
